Results published in patent publication US8969394B2, “Thiophenecarboxamide derivatives as EP4 receptor ligands” (Merck Frosst Canada Ltd., priority 2006, dated 2015).

Target: EP4 receptor (Homo sapiens (Human), UniProt P35408)
Assay: Prostanoid receptor binding assay, hEP4 (membranes of transfected HEK 293(ebna) cells)
Conditions: radioligand binding, HEK 293(ebna) membranes, 10 mM MES/KOH pH 6.0
Experimental: Prostanoid receptor cDNAs corresponding to full length coding sequences are subcloned into the appropriate sites of mammalian expression vectors and transfected into HEK 293(ebna) cells. HEK 293(ebna) cells expressing the individual cDNAs are grown under selection and individual colonies are isolated after 2-3 weeks of growth using the cloning ring method and subsequently expanded into clonal cell lines.
Transfected HEK 293(ebna) cells are maintained in culture, harvested and membranes are prepared by differential centrifugation, following lysis of the cells in the presence of protease inhibitors, for use in receptor binding assays. Prostanoid receptor binding assays (for DP1, DP2 (CRTH2), EP1, EP2, EP3-III, EP4, FP, IP, and TP) are performed in 10 mM MES/KOH (pH 6.0) (EPs, FP and TP) or 10 mM HEPES/KOH (pH 7.4) (DPs and IP), containing 1 mM EDTA, 2.5-30 mM divalent cation and the appropriate radioligand. Synthetic compounds are added in dimethylsulfoxide which is kept constant at 1% (v/v) in all incubations. The reaction is initiated by addition of membrane protein. Non-specific binding is determined in the presence of 10 μM of the corresponding non-radioactive prostanoid. Incubations are conducted for 60-90 min at room temperature or 30° C. and terminated by rapid filtration. Specific binding is calculated by subtracting non specific binding from total binding. The residual specific binding at each ligand concentration is calculated and expressed as a function of ligand concentration in order to construct sigmoidal concentration-response curves. The binding affinity of the compounds is determined by calculating the equilibrium inhibition constant (Ki) from the equation Ki=InPt/1+[radioligand]/Kd where Kd is the equilibrium dissociation constant for the radioligand:receptor interaction and InPt is the inflection point of the dose-response curves.

EP4 receptor, sequence (P35408 whole entry): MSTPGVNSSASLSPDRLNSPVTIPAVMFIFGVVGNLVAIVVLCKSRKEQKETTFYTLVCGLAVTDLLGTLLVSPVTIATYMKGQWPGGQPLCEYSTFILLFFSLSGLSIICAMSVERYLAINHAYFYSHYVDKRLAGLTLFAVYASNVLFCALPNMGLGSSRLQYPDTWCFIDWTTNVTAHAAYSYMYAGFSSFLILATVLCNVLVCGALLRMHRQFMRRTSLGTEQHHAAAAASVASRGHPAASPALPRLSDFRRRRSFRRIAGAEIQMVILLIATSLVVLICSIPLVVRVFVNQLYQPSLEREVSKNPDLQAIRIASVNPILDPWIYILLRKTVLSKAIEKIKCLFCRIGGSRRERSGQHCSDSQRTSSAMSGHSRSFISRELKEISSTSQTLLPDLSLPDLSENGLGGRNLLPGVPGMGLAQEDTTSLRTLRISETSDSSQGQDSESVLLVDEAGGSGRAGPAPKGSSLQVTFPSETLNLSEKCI

Row | SMILES | Ki [nM]
1 | CC(NC(=O)c1sc(Cl)cc1Cc1cccc(Cl)c1)c1ccc(C(=O)O)cc1 (stereo not drawn) [Example 1, 4-[1-({[5-chloro-3-(3-chlorobenzyl)-2-thienyl]carbonyl}amino)ethyl]-benzoic acid] | 5.2 ± 1.1
2 | CC(NC(=O)c1sc(Cl)cc1Cc1cccc(Cl)c1)c1ccc(-c2nn[nH]n2)cc1 (stereo not drawn) [Example 2, 5-chloro-3-(3-chlorobenzyl)-N-{1-[4-(1H-tetrazol-5-yl)phenyl]ethyl}-thiophene-2-carboxamide] | 2.6 ± 0.6
3 | C[C@H](NC(=O)c1cscc1Cc1cccc(Cl)c1)c1ccc(C(=O)O)cc1 [Example 3, 4-[(1S)-1-({[4-(3-chlorobenzyl)-3-thienyl]carbonyl}amino)ethyl]benzoic acid] | 7.9 ± 0.6
4 | C[C@H](NC(=O)c1csc(Br)c1Cc1cccc(Cl)c1)c1ccc(C(=O)O)cc1 [Example 4, 4-[(1S)-1-({[5-bromo-4-(3-chlorobenzyl)-3-thienyl]carbonyl}amino)ethyl]benzoic acid] | 0.71 ± 0.01
5 | C[C@H](NC(=O)c1c(Br)sc(Br)c1Cc1cccc(Cl)c1)c1ccc(C(=O)O)cc1 [Example 5, 4-[(1S)-1-({[2,5-dibromo-4-(3-chlorobenzyl)-3-thienyl]carbonyl}amino)ethyl]benzoic acid] | 0.47 ± 0.01
6 | COC(=O)c1ccc([C@H](C)NC(=O)c2c(Cl)sc(Cl)c2Cc2cccc(Cl)c2)cc1 [Example 6, methyl 4-[(1S)-1-({[2,5-dichloro-4-(3-chlorobenzyl)-3-thienyl]carbonyl}amino)ethyl]benzoate] | 124
7 | C[C@H](NC(=O)c1c(Cl)sc(Cl)c1Cc1cccc(Cl)c1)c1ccc(C(=O)O)cc1 [Example 7, 4-[(1S)-1-({[2,5-dichloro-4-(3-chlorobenzyl)-3-thienyl]carbonyl}amino)ethyl]benzoic acid] | 1.3 ± 0.6
8 | C[C@H](NC(=O)c1c(Cl)sc(Cl)c1C(OC1CCCCO1)c1cccc(Cl)c1)c1ccc(C(=O)O)cc1 (stereo partly drawn) [Example 8] | 51
9 | C[C@H](NC(=O)c1c(Cl)sc(Cl)c1C(O)c1cccc(Cl)c1)c1ccc(C(=O)O)cc1 (stereo partly drawn) [Example 9, 4-{(1S)-1-[({2,5-dichloro-4-[(3-chlorophenyl)(hydroxy)methyl]-3-thienyl}carbonyl)amino]ethyl}benzoic acid] | 1.8
10 | C[C@H](NC(=O)c1c(Cl)sc(Cl)c1C(=O)c1cccc(Cl)c1)c1ccc(C(=O)O)cc1 [Example 10, 4-[(1S)-1-({[2,5-dichloro-4-(3-chlorobenzoyl)-3-thienyl]carbonyl}amino)ethyl]benzoic acid] | 7.4 ± 1.3
11 | Cc1sc(C)c(C(=O)N[C@@H](C)c2ccc(C(=O)O)cc2)c1Cc1ccc(C(F)(F)F)cc1 [Example 12, 4-{(1S)-1-[({2,5-dimethyl-4-[4-(trifluoromethyl)benzyl]-3-thienyl}carbonyl)amino]ethyl}benzoic acid] | 1.4 ± 0.4
12 | Cc1sc(C)c(C(=O)NC2(c3ccc(-c4nn[nH]n4)cc3)CC2)c1Cc1ccc(C(F)(F)F)cc1 [Example 14, 2,5-dimethyl-N-{1-[4-(2H-tetrazol-5-yl)phenyl]cyclopropyl}-4-[4-(trifluoromethyl)benzyl]thiophene-3-carboxamide] | 0.6 ± 0.1
13 | Cc1sc(C)c(C(=O)NC2(c3ccc(C(=O)O)cc3)CC2)c1Cc1ccc(C(F)(F)F)cc1 [Example 16, 4-{1-[({2,5-dimethyl-4-[4-(trifluoromethyl)benzyl]-3-thienyl}carbonyl)amino]cyclopropyl}benzoic acid] | 0.5 ± 0.1
14 | Cc1sc(C)c(C(=O)N[C@@H](C)c2ccc(C(=O)NS(C)(=O)=O)cc2)c1Cc1ccc(C(F)(F)F)cc1 [Example 18, 2,5-dimethyl-N-[(1S)-1-(4-{[(methylsulfonyl)amino]carbonyl}phenyl)ethyl]-4-[4-(trifluoromethyl)benzyl]thiophene-3-carboxamide] | 308
15 | Cc1sc(C)c(C(=O)N[C@@H](C)c2ccc(C(=O)NS(=O)(=O)c3ccccc3)cc2)c1Cc1ccc(C(F)(F)F)cc1 [Example 19, 2,5-dimethyl-N-[(1S)-1-(4-{[(phenylsulfonyl)amino]carbonyl}phenyl)ethyl]-4-[4-(trifluoromethyl)benzyl]thiophene-3-carboxamide] | 133
16 | C[C@@H](NC(=O)c1c(Cl)sc(Cl)c1Cc1cccc(Cl)c1)c1ccc(C(=O)O)cc1 [Example 20, 4-[(1R)-1-({[2,5-dichloro-4-(3-chlorobenzyl)-3-thienyl]carbonyl}amino)-ethyl]benzoic acid] | 0.9 ± 0.2
17 | C[C@H](NC(=O)c1c(Cl)sc(Cl)c1Cc1cccc(C(F)(F)F)c1)c1ccc(C(=O)O)cc1 [Example 21, 4-{(1S)-1-[({2,5-dichloro-4-[3-(trifluoromethyl)benzyl]-3-thienyl}carbonyl)-amino]ethyl}benzoic acid] | 0.8 ± 0.2
18 | O=C(O)c1ccc(CNC(=O)c2c(Cl)sc(Cl)c2Cc2cccc(Cl)c2)cc1 [Example 22, 4-[({[2,5-dichloro-4-(3-chlorobenzyl)-3-thienyl]carbonyl}amino)-methyl]benzoic acid] | 0.9 ± 0.1
19 | Cc1sc(C)c(C(=O)N[C@@H](C)c2ccc(C(=O)O)cc2)c1Cc1cccc(Cl)c1 [Example 23, 4-[(1S)-1-({[4-(3-chlorobenzyl)-2,5-dimethyl-3-thienyl]carbonyl}amino)-ethyl]benzoic acid] | 3.1 ± 0.4
20 | Cc1sc(C)c(C(=O)N[C@@H](C)c2ccc(C(=O)O)cc2)c1Cc1cccc(C(F)(F)F)c1 [Example 24, 4-{(1S)-1-[({2,5-dimethyl-4-[3-(trifluoromethyl)benzyl]-3-thienyl}carbonyl)-amino]ethyl}benzoic acid] | 2.4 ± 0.2
21 | Cc1sc(C)c(C(=O)NCc2ccc(C(=O)O)c(Cl)c2)c1Cc1cccc(Cl)c1 [Example 25, 2-chloro-4-[({[4-(3-chlorobenzyl)-2,5-dimethyl-3-thienyl]carbonyl}amino)-methyl]benzoic acid] | 30
22 | Cc1sc(C)c(C(=O)NC2(c3ccc(-c4nn[nH]n4)cc3)CC2)c1Cc1cccc(C(F)(F)F)c1 [Example 26, 2,5-dimethyl-N-{1-[4-(2H-tetrazol-5-yl)phenyl]cyclopropyl}-4-[3-(trifluoromethyl)benzyl]thiophene-3-carboxamide] | 0.7 ± 0.2
23 | Cc1sc(C)c(C(=O)NC2(c3ccc(C(=O)O)cc3)CC2)c1Cc1cccc(C(F)(F)F)c1 [Example 28, 4-{1-[({2,5-dimethyl-4-[3-(trifluoromethyl)benzyl]-3-thienyl}carbonyl)-amino]cyclopropyl}benzoic acid] | 0.8 ± 0.2
24 | Cc1sc(C)c(C(=O)N[C@@H](C)c2ccc(C(=O)O)cc2)c1Cc1ccc(Cl)cc1 [Example 30, 4-[(1S)-1-({[4-(4-chlorobenzyl)-2,5-dimethyl-3-thienyl]carbonyl}amino)-ethyl]benzoic acid] | 3.4 ± 0.2
